Experiment: Adriamycin-induced focal segmental glomerulosclerosis (FSGS) in mice: urine protein, serum creatinine, BUN
Format: in vivo
Conditions: 8-week-old BALB/c mice, adriamycin 0.1 mg/per 10 g body weight intravenously, day 15
Description: 8-week-old BALB/c mice were injected with adriamycin (0.1 mg/per 10 g body weight) intravenously to induce Focal Segmental Glomerulosclerosis (FSGS). Blood, urine, and kidney tissue samples were collected at days 0, 7, 15, and 20 after injection. More specifically, the blood samples were collected from the retro-orbital venous plexus and the urine samples were collected by gentle abdominal massage. The samples were centrifuged to remove insoluble substances and then stored in liquid nitrogen. When urine proteins are to be measured, the corresponding samples were collected on parafilms. The modified Bradford protein assay was performed to examine urine protein concentration, the picric acid colorimetric kit (Sigma 555-1) was used for detecting creatinine, and an urease assay kit provided by Sigma (640-5) was used for determining the level of blood urea nitrogen (BUN).

COc1cccc2c1C(=O)c1c(O)c3c(c(O)c1C2=O)C[C@@](O)(C(=O)CO)C[C@@H]3O[C@H]1C[C@H](N)[C@H](O)[C@H](C)O1 [adriamycin]
serum creatinine level (control mice 0.48±0.03): 2.02 ± 0.17 mg/dL
urine protein level (control mice 0.59±0.082): 16.84 ± 3.13 mg/mL
BUN (blood urea nitrogen) level (control mice 21.85±1.99): 71.42 ± 8.09 mg/dL

Reference: patent publication US8329651B2, “Method for renal disease diagnosis and prognosis using annexin A1 and Rab23 as markers” (National Defense Medical Center, priority 2009, dated 2012)
